# According to US20060110456A1, “Method for biocidal and/or biostatic treatment and compositions therefor” (NATIONAL UNIVERSITY OF SINGAPORE, priority 2004, published 2006):
# “Also recorded” adds a separate entry of the source. Counter-ions that a name gives are not always drawn.
# Key:
# [1] = cited from earlier work; for Solubility: in words
# [2] = system: Balanus amphitrite cyprids; test: whole plant or invertebrate; conditions: for IC50: Amphibalanus amphitrite, 24 h, read-out: ED50; for Prevention of settlement of barnacle cyprids: crude rank, best (1) to worst (8)
# Procedure: Pharmaceuticals from the respective manufacturers were treated in the following way. A pill containing a known amount of active ingredient (as stated in product information) was ground in a mortar and pestle and a suspension of 2 mg ml^−1 generated in de-ionized water. This stock solution is stored at −20° C. in 4 ml amber screw cap vials. For the bioassays, 250 ul of stock solution is added to 10 ml of 1 um filtered seawater. This suspension was then sonicated for 10 minutes. Serial dilutions of this 50 μg ml^−1 seawater solution, or suspension, with seawater was done to generate the required range of concentrations.
# This method is now standard practice for many antifouling screening of novel compounds.
# Barnacle larvae from field-collected adults were reared on an algal mixture of 1:2:2 v/v of Rhodomonas salina, Tetraselmis suecica and Chaetoceros muelleri at 25° C., at approximately 5×10^5 cells per ml density. On this regime, larvae metamorphose to cyprids in 5 days.
# Test solutions were made up to twice the required final concentration. 1 ml of test solution was added into each well, and cyprids were transferred into each well in 1 ml of seawater. Assays were done in triplicate. After 24 hours, larvae that had attached and metamorphosed were enumerated and the result expressed as percentage settlement. Larvae not attached were scored as not settled.
# The Therapeutic Ratio, or LC50/EC50, is a way of assessing the effectiveness of the compound in relation to its toxicity. […] LC50 and EC50 estimates and the therapeutic ratio should be considered as working values providing an estimation of potency, rather than as absolutes.
# [3] = system: marine bacteria (ten strains); test: Bio-adhesion assay (crystal violet microplate); type: cell-based, marine bacteria isolated from Singapore fouling communities; conditions: for Effect on bacterial adhesion: polystyrene or tissue culture surface as named in the value; for Effect of drugs on adhesion of bacteria: 50 μl of 125 μg ml^−1 drug + 200 μl bacteria, 2 hours
# Procedure: The effect of pharmaceuticals on bacterial adhesion was analyzed using a modified microplate method adapted from Shea and Williamson (1990). This method consists of staining the attached bacteria with crystal violet, releasing the stain with sodium desoxycholate, and measuring the resulting absorbance of the crystal violet. The absorbance is proportional to the degree of bacterial adhesion to the surface.
# Ten strains of bacteria (strain numbers 1, 4, 9, 14, 18, 20, 27, 28, 29 and 30) were chosen for this study. Flat bottom non-tissue culture treated polystyrene (hydrophobic, Falcon #351172) (referred to as polystyrene) and flat bottom tissue culture treated polystyrene (hydrophilic, Falcon #353072) microplates were used in the analyses. These two types of plates were chosen because they were sterile and offered two different kinds of surfaces to determine the adhesion preferences of the bacteria. Each test was done in duplicate. For the control and blank wells, 50 μl of sterile deionized water were added. For those wells that were to contain drugs, 50 μl of drugs at concentration of 125 μg ml^−1 were added. Then 200 μl of bacteria suspension in sterile seawater, whose absorbance had been adjusted to 0.6 at 600 nm using a spectrophotometer (Beckman), were added. Blanks contained 200 μl of sterile seawater.
# The bacteria in suspension were allowed to attach for 2 hours at 28° C. Unattached cells were removed by pipetting out almost all trace of liquid and rinsed three times with 300 μl of sterile seawater each time. The attached cells were stained with 200 μl of crystal violet solution (0.1% w/v) in each well for 5 min. After removing the stain by pipetting, the wells were rinsed twice with 300 μl of sterile deionized water each time. Sodium desoxycholate (200 μl) solution (2% w/v) was then added to each well to extract the crystal violet from the stained cells for 10 min. The absorbance of the extracted solution was read at 590 nm using a microplate reader (Sunrise, Tecan, Switzerland).
# The data were analyzed using T-test (Two-sample assuming unequal variances) to determine the significance of the absorbance values of each bacterial strain versus the blanks to determine whether there was adhesion, i.e. increase in absorbance. Each drug effect on adhesion was analyzed by comparing the absorbance of each bacterial strain minus the control blank versus bacteria in presence of drug minus the drug control. When the data is significant, there are bacterial cells attached to the surface in the control but in the presence of drugs, there is no attachment.
# [4] = system: hard fouling (barnacles, serpulids, spirorbids); test: Field testing of coated rods; type: in vivo; parameters: Total hard fouling, difference in mean cover (%), drug vs control / Barnacles, difference in mean cover (%), drug vs control: tested at 25 µg/ml of coating; Serpulids, difference in mean cover (%), drug vs control: tested at 25 µg/ml of coating mix; conditions: for Overall performance in field assay: crude rank, best (1) to worst (8)
# Procedure: Fouling on rods occurs more rapidly than on flat panels, enabling rapid assessment of the performance of coatings.
# 6 mm diameter glass rods were cut to 150 mm length and prepared prior to coating by baking in a furnace at 150° C. for 24 hours and then cooling in a dessicator.
# All pharmaceuticals were obtained in commercially available form. All tablets were reduced to fine powder with a mortar and pestle, and capsules were opened to extract the contents. The amount of drug powder required to attain the desired concentrations for all tests was calculated from product dosage information and then measured by weight on a high-resolution electronic balance. This was added to the coating and mixed thoroughly prior to application to obtain the concentration of 25 ug active ingredient per ml of coating mix.
# The commercial antifouling product used to benchmark field experiments was VC Offshore with Teflon® manufactured by International Coatings.
# For our experiments, a reduced copper coating (“VC50”) was prepared by mixing approximately 20 g of #YBA779 into 100 ml of #YBA707. The prepared coating was then allowed to stand so that bubbles from the mixing process dissipated. 15 ml centrifuge tubes were filled with 10 mls of prepared coating. Prepared glass rods were then immersed in the coating to a height of 100 mm and then suspended on a frame to air dry until coating cured.
# Five replicate rods were tested for every experimental treatment, including controls. Two sets of controls were used, an uncoated blank control and a VC50 control without pharmaceutical additives. Rod were randomly arrayed on plastic vexar mesh attached to PVC frames and suspended at a depth of 10 cm from the water surface. […] Rods were examined visually weekly for the duration of testing, which typically lasts between 6 to 10 weeks. All fouling was scored as percentage cover of each category within a 6 mm×50 mm transect on each rod.
# [5] = strain 1 (Rhodovulum), hydrophobic surface (untreated polystyrene)
# [6] = coated rods, 25 ug active ingredient per ml of VC50 coating
# [7] = drug + VC50 rods vs VC50 control
# [8] = drug + VC50 rods vs uncoated blank control
# [9] = rods coated with drug + VC50, field test
compound,measurement,setting,value
"CCCCCCCCCC(=O)OC1(c2ccc(Cl)cc2)CCN(CCCC(=O)c2ccc(F)cc2)CC1 [HDL, haloperidol decanoate]",Solubility in water,[1],10 µg/mL
same,Solubility,[1],almost insoluble in water
same,IC50,[2],0.119 µg/mL
same,Prevention of settlement of barnacle cyprids,[2],3
same,Effect on bacterial adhesion,[3],significant inhibition of adhesion in strain 1 and 20
same,Effect of drugs on adhesion of bacteria,[3]; [5],*** (*** p < 0.005)
same,Effect of drugs on adhesion of bacteria,"[3]; strain 20, hydrophobic surface (untreated polystyrene)",* (Significantly less adhesion observed: * p < 0.05)
same,"Total hard fouling, mean cover",[4]; [6],30%
same,Performance against barnacles,"[4]; coated rods, in words",did not significantly reduce barnacle cover compared to VC50 controls
same,Performance against serpulid polychaetes,"[4]; coated rods, in words",completely excluded
same,Performance against spirorbid polychaetes,"[4]; coated rods, in words",exclude spirorbid settlement; also recorded: significantly improve the performance of VC50 against spirorbid polychaetes
same,Overall performance in field assay,[4],4
same,"Barnacles, difference in mean cover (%), drug vs VC50",[4]; [7],−6.7%
same,"Serpulids, difference in mean cover (%), drug vs VC50",[4]; [7],−1.67%
same,"Spirorbids, difference in mean cover (%), drug vs VC50",[4]; [7],−16.66%
same,"Total hard fouling, difference in mean cover (%), drug vs VC50",[4]; [7],−25%
same,"Barnacles, difference in mean cover (%), drug vs control",[4]; [8],−69.7%
same,"Serpulids, difference in mean cover (%), drug vs control",[4]; [8],−3.33%
same,"Spirorbids, difference in mean cover (%), drug vs control",[4]; [8],+5%
same,"Total hard fouling, difference in mean cover (%), drug vs control",[4]; [8],−68%
same,Effect of addition of drug on antifouling performance of VC50 coating (total hard fouling),"[4]; drug at 25 ug per ml of VC50 coating, in words",significantly less on VC50+HDL treated rods; also recorded: significantly improved the performance of VC50 coating
same,Barnacles Mean cover (%),[4]; [9],23.3%
same,Serpulids Mean cover (%),[4]; [9],0%
same,Spirorbids Mean cover (%),[4]; [9],6.67%
same,Total hard fouling Mean cover (%),"[4]; rods coated with drug + VC50, field test, percentage cover within 6 mm×50 mm transect",30%
"CN(C)C(=O)C(CCN1CCC(O)(c2ccc(Cl)cc2)CC1)(c1ccccc1)c1ccccc1 [IMD, Loperamide hydrochloride]",Solubility,[1],slightly soluble in water
same,IC50,[2],> 5 µg/mL
same,Prevention of settlement of barnacle cyprids,[2],8
same,Effect on settlement of cyprids,[2]; in words,not effective against cyprids
same,Effect on bacterial adhesion,[3],caused strain 1 to adhere to tissue culture surfaces
same,Effect of drugs on adhesion of bacteria,"[3]; strain 1 (Rhodovulum), hydrophilic surface (tissue culture treated polystyrene)",*incr adhesion
same,Effect of drugs on adhesion of bacteria,[3]; [5],* (Significantly less adhesion observed: * p < 0.05)
same,Effect of drugs on adhesion of bacteria,"[3]; strain 14 (Vibrio), hydrophilic surface (tissue culture treated polystyrene)",* (Significantly less adhesion observed: * p < 0.05)
same,Reduction of total hard fouling cover compared to blank controls,[4]; coated rods,97.3%
same,"Barnacles, mean cover",[4]; [6],0.67%
same,"Serpulids, mean cover",[4]; [6],0%
same,"Spirorbids, mean cover",[4]; [6],0%
same,"Total hard fouling, mean cover",[4]; [6],0.67%
same,Performance against barnacles,"[4]; coated rods, in words",significantly less than on both controls
same,Performance against spirorbid polychaetes,"[4]; coated rods, in words, hydrochloride",exclude spirorbid settlement; also recorded: no settlement by spirorbids
same,Overall performance in field assay,[4],1
same,Reduction of total hard fouling cover compared to VC50 alone,[4]; drug at 25 ug per ml of VC50 coating,54.3%
same,Effect of addition of drug on antifouling performance of VC50 coating (total hard fouling),"[4]; drug at 25 ug per ml of VC50 coating, in words, hydrochloride",significantly increased the fouling resistance of the base coating; also recorded: significantly improved the performance of VC50 coating
same,"Barnacles, difference in mean cover vs VC50",[4]; vs VC50 control,−29.3%
same,"Serpulids, difference in mean cover vs VC50",[4]; vs VC50 control,−1.67%
same,"Spirorbids, difference in mean cover vs VC50",[4]; vs VC50 control,−23.33%
same,"Total hard fouling, difference in mean cover vs VC50",[4]; vs VC50 control,−54.3%
same,"Barnacles, difference in mean cover vs control",[4]; vs uncoated blank control,−92.3%
same,"Serpulids, difference in mean cover vs control",[4]; vs uncoated blank control,−3.33%
same,"Spirorbids, difference in mean cover vs control",[4]; vs uncoated blank control,−1.67%
same,"Total hard fouling, difference in mean cover vs control",[4]; vs uncoated blank control,−97.3%
